Values after ≈ are worked out from the molar mass of the structure shown.
Biological target: T1, lipase
T1 construct: gene PNLIP; pig pancreas is only the usual preparation
Assay: 4-nitrophenyl butyrate hydrolysis, absorbance at […] nm
Type: biochemical
Conditions: potassium phosphate pH 7.0, 37 °C, 10 min, standard drug, covalent

Work on `CCCCCCCCCCC[C@@H](C[C@@H]1OC(=O)[C@H]1CCCCCC)OC(=O)[C@H](CC(C)C)NC=O` [Orlistat] yielded an IC50 of 6.4 µg/mL (≈ 12.9 µM).
